Measured values published in patent publication US8461176B2, “Enantiomerically enriched aryloazol-2-yl cyanoethylamino compounds, method of making and method of using thereof” (Merial Limited, priority 2008, dated 2013).

Columns and labels:
Toxocara cati = experiment: Method G: anthelmintic efficacy against induced infections of adult nematodes in cats, Toxocara cati; format: in vivo; details: oral, once, doses as low as 1 mg/kg
Experimental: (§1) Method G: Evaluation of Anthelmintic Efficacy Against Induced Infections of Adult Nematodes in Cats
(§2) Cats were inoculated on three consecutive days with an aliquot of infective eggs of Toxocara cati (days −63, −62, −61) and Ancylostoma tubaeforme (days −28, −27, −26) from one bulk solution each. The inoculation schedule was designed such that nematodes were adult on day 0. The approximate number of infective eggs/larvae given was recorded. Fecal samples were collected between day −7 and day −1 and examined to confirm the presence of infections, and are reported as eggs/gram of feces. Each formulation was orally administered once on day 0. On day 8, the cats were humanely euthanized. The stomach, cecum, small and large intestines were removed and the total content was retained for parasite recovery. Parasites were collected and identified. Efficacy was determined for each nematode species by calculating the percent efficacy as 100[(C−T)/C], where C is the mean count among untreated controls and T is the count of the treated animals.

Haemonchus contortus [1] = experiment: Method A: screening of activity against Haemonchus contortus L1 larvae in microtitre plate (development to L3 / motility)
Text: Method A: Screening Method to Test Activity of Compounds Against Haemonchus contortus.

[2] = tested on: ivermectin-resistant Haemonchus contortus; experiment: Method I: sheep in vivo, ivermectin-resistant Haemonchus contortus; details: 1.5 mg/kg or 3 mg/kg orally
Text: (§3) Method I: Screening Method to Test Activity of Compounds Against Ivermectin-Resistant Haemonchus contortus, Ostertagia circumcincta, and Trichostrongylus colubriformis In Vivo in Sheep.
(§4) Sheep were challenged orally with infective 3rd stage larvae (L3) of Ostertagia circumcincta (˜3,000-6,000 infective L3 per animal) on Dat −28, Haemonchus contortus (˜2,000-4,000 infective L3 per animal) on Dat −25, and Trichostrongylus colubriformis (˜3,000-6,000 infective L3 per species per animal) on Dat −23. The inoculation schedule was designed so that nematodes were expected to be in the adult stage on Day 0. Test compounds were dissolved in a mixture of DMSO/Corn oil (1:1) at a concentration of 10 mg/mL. All treatments were administered orally once on Day 0. At sacrifice on Day 14 the abomasum, small intestine and large intestine (including cecum) were removed. Nematode counts were conducted on 10% (abomasal and small intestinal content, abomasal soak) or 20% aliquots (large intestinal content). All nematodes were speciated, or assigned to species based on location of recovery (adult females, fourth-stage larvae) for a total count per species. Efficacy was calculated as the % reduction in the mean number of worms in each test group compared with the mean number of worms recovered from the control group. […]

Cooperia punctata = experiment: Method H: cattle in vivo, Cooperia punctata; details: compound alone, dose as low as 3 mg/kg administered orally
Text: (§5) Method H: Screening Method to Test Activity of Compounds Against Haemonchus placei, Ostertagia ostertagi, Trichostrongylus axei, Cooperia punctata, Bunostomum phlebotomum, Oesophagostomum radiatum, Dictyocaulus viviparus, and Nematodirus helvetianus In Vivo in Cattle.
(§6) Calves were challenged intra-aurally with larvae from Bunostomum phlebotomum (500-1000 L3 per animal) on Dat −56; and orally with larvae from Oesophagostomum radiatum (1,000-2,000 infective L3 per animal) on Dat −49, Nematodirus helvetianus (3,000-6,000 infective L3 per animal) on Dat −28, Haemonchus placei (5,000-7,000 infective L3 per animal) on Dat −28, Dictyocaulus viviparus (1,000-2,000 infective L3 per animal) on Dat −28, Ostertagia ostertagi (10,000-20,000 infective L3 per animal) on Dat −21, Trichostrongylus axei (10,000-20,000 infective L3 per animal) on Dat −21, Cooperia punctata (10,000-20,000 infective L3 per animal) on Dat −28, and Cooperia oncophora (10,000-20,000 infective L3 per animal) on Dat −21. The test compound was administered alone at a dose of 3 or 6 mg/kg orally or subcutaneously or subcutaneously at a dose of 6 mg/kg in combination with ivermectin at a dose of 50 mcg/kg. […] Efficacy was calculated for each nematode species by calculating the percent efficacy as 100[(C−T)/C], where C is the mean count among untreated controls and T is the count of the treated animals. […]

Caenorhabditis elegans = experiment: Inhibition of the motility of Caenorhabditis elegans
Trichostrongylus axei = experiment: Method H: cattle in vivo, Trichostrongylus axei; details: compound alone, dose as low as 3 mg/kg administered orally
Text: as §5, §6

Ancylostoma tubaeforme = experiment: Method G: anthelmintic efficacy against induced infections of adult nematodes in cats, Ancylostoma tubaeforme; format: in vivo; details: oral, once, doses as low as 1 mg/kg
Experimental: as §1, §2

Oesophagostomum radiatum = experiment: Method H: cattle in vivo, Oesophagostomum radiatum; details: compound alone, dose as low as 3 mg/kg administered orally
Text: as §5, §6

[3] = tested on: ivermectin-resistant Ostertagia circumcincta; experiment: Method I: sheep in vivo, ivermectin-resistant Ostertagia circumcincta; details: 1.5 mg/kg or 3 mg/kg orally
Text: as §3, §4

[4] = tested on: ivermectin-resistant Trichostrongylus columbriformis; experiment: Method I: sheep in vivo, ivermectin-resistant Trichostrongylus colubriformis; details: 1.5 mg/kg or 3 mg/kg orally
Text: as §3, §4

[5] = tested on: Ivermectin-Resistant Haemonchus contortus, Ostertagia circumcincta, and Trichostrongylus colubriformis; experiment: Method I: activity against ivermectin-resistant nematodes in vivo in sheep (all species tested); details: oral, once, doses as low as 1.5 mg/kg
Text: as §3, §4

Haemonchus placei = experiment: Method H: cattle in vivo, Haemonchus placei
Text: as §5
(§7) Calves were challenged intra-aurally with larvae from Bunostomum phlebotomum (500-1000 L3 per animal) on Dat −56; and orally with larvae from Oesophagostomum radiatum (1,000-2,000 infective L3 per animal) on Dat −49, Nematodirus helvetianus (3,000-6,000 infective L3 per animal) on Dat −28, Haemonchus placei (5,000-7,000 infective L3 per animal) on Dat −28, Dictyocaulus viviparus (1,000-2,000 infective L3 per animal) on Dat −28, Ostertagia ostertagi (10,000-20,000 infective L3 per animal) on Dat −21, Trichostrongylus axei (10,000-20,000 infective L3 per animal) on Dat −21, Cooperia punctata (10,000-20,000 infective L3 per animal) on Dat −28, and Cooperia oncophora (10,000-20,000 infective L3 per animal) on Dat −21. The test compound was administered alone at a dose of 3 or 6 mg/kg orally or subcutaneously or subcutaneously at a dose of 6 mg/kg in combination with ivermectin at a dose of 50 mcg/kg. For oral administration, test compounds were formulated at a concentration of 10 mg/mL in DMSO/Corn oil (1:1). For subcutaneous administration, test compounds were formulated in propylene glycol/glycerol formal (60:40). All treatments were administered at Day 0. At necropsy on Day 14/15, the abomasa, small intestine and large intestine were removed and processed for parasite recovery. Nematode counts were conducted on appropriate aliquots. Efficacy was calculated for each nematode species by calculating the percent efficacy as 100[(C−T)/C], where C is the mean count among untreated controls and T is the count of the treated animals. Compound number 3.024 provided >95% efficacy against Haemonchus placei, Ostertagia ostertagi, Trichostrongylus axei, Cooperia punctata, Oesophagostomum radiatum and Nematodirus helvetianus at a dose as low as 3 mg/kg administered orally. […]

Ostertagia ostertagi = experiment: Method H: cattle in vivo, Ostertagia ostertagi; details: compound alone, dose as low as 3 mg/kg administered orally
Text: as §5, §6

Nematodirus helvetianus = experiment: Method H: cattle in vivo, Nematodirus helvetianus
Text: as §5, §7

Haemonchus contortus [6] = experiment: Method B: activity against Haemonchus contortus in vivo in Mongolian gerbil; set-up: species or system Mongolian gerbil (Meriones unguiculatus); details: po, 72 h, oral gavage, dose 0.1 mg/kg, read-out: reduction in nematode infection
Experimental: Method B: Screening Method to Test Activity of Compounds Against Haemonchus contortus In Vivo in Mongolian Gerbil (Meriones unguiculatus).
Mongolian gerbils, at least five weeks old, were immunosuppressed and artificially infected with ca. 1000 ensheathed Haemonchus contortus third instar larvae. Six days after infection, the Mongolian gerbils were treated by oral gavage with the test compounds, dissolved in a mixture of 2 parts DMSO and 1 part polyethylene glycol (PEG400), at doses of 100 mg/kg and dissolved in pure polyethylene glycol (PEG400) at doses of 10 and 1 mg/kg. Mongolian gerbils treated only with the placebo (2 parts DMSO and 1 part PEG400 or pure PEG400) served as controls. On day 9 (3 days after treatment) the jirds were euthanized and necropsied for recovery of parasites from the stomach. Efficacy was calculated as the average % reduction in the number of worms in each test group compared with the average number of worms from the control group. […] Compound numbers 1.001, 1.008, 1.012, 1.013 and 1.014 provided at least 95% reduction in nematode in Mongolian gerbils treated by oral gavage with test article at a dose of 100 mg/kg. Compound numbers 1.012, 1.033, 1.064, 2.008, 2.037, 2.038, 2.040, 2.041, 3.001 provided at least 95% reduction in nematode infection at a dose of 10 mg/kg. Compound numbers 1.094, 1.096, 2.048, 3.001, 3.007 and 3.009, provided at least 95% reduction in nematode infection at a dose of 1 mg/kg. Compound numbers 3.006, 3.017 and 3.019 provided at least 95% reduction in nematode infection at a dose of 0.5 mg/kg. Compound numbers 3.005, 3.011 and 3.012 provided at least 95% reduction in nematode infection at a dose of 0.3 mg/kg. The eutomer compound number 3.024 provided at least 95% reduction in nematode infection at a dose of 0.1 mg/kg.

[7] = compound alone, dose as low as 3 mg/kg administered orally
[8] = subcutaneous, 6 mg/kg in combination with ivermectin 50 μg/kg (0.05 mg/kg)

C[C@](C#N)(Cn1cc2ncc(Br)cc2n1)NC(=O)c1ccc(OC(F)(F)F)cc1 [Compound 3.024, (+)-N-[2-(6-Bromo-2H-pyrazolo[4,3-b]pyridin-2-yl)-1-cyano-1-methylethyl]-4-trifluoromethoxybenzamide]
efficacy against Toxocara cati (Toxocara cati): > 94% | inhibition at 0.0025 ppm (Haemonchus contortus [1]; Haemonchus contortus, 96 h, test concentration 0.0025 ppm, 4 days assessment): ≥ 90% | potency at inhibiting the motility of Haemonchus contortus larvae, eutomer relative to distomer (Haemonchus contortus [1]; relative to the distomer (compound 3.025)): greater than 100 times | efficacy against ivermectin-resistant Haemonchus contortus [2]: greater than 95% | efficacy against Cooperia punctata (Cooperia punctata): > 95% | potency at inhibiting the motility of Caenorhabditis elegans, relative to compound 3.025 (Caenorhabditis elegans): greater than 100 times | efficacy against Trichostrongylus axei (Trichostrongylus axei): > 95% | efficacy against Ancylostoma tubaeforme (Ancylostoma tubaeforme): > 94% | efficacy against Oesophagostomum radiatum (Oesophagostomum radiatum): > 95% | efficacy against ivermectin-resistant Ostertagia circumcincta [3]: greater than 95% | efficacy against ivermectin-resistant Trichostrongylus columbriformis [4]: greater than 95% | efficacy against all species of the nematodes tested (ivermectin-resistant) [5]: > 95% | efficacy against Haemonchus placei (Haemonchus placei; [7]): > 95% | efficacy against Haemonchus placei (ivermectin-resistant strain) (Haemonchus placei; [8]): greater than 95% | efficacy against Ostertagia ostertagi (Ostertagia ostertagi): > 95% | efficacy against Nematodirus helvetianus (Nematodirus helvetianus; [7]): > 95% | efficacy against Nematodirus helvetianus (Nematodirus helvetianus; [8]): greater than 95% | inhibition in vivo at 0.1 mg/kg (Haemonchus contortus [6]): ≥ 95%
